Test [1] deals with Plasmodium falciparum (D6 strain). The test is described as follows: In vitro anti-malarial activity, [3H]-ethanolamine incorporation. Type of test: cell-based. Particulars: for IC50: Plasmodium falciparum; for anti-malarial potency relative to 2,3,4,5,6-pentahydroxyxanthone: in words. The procedure:
The D6 strain of P. falciparum was cultured in Group A^+ human erythrocytes and suspended at a 3.3% hematocrit in RPMI-1640 (Gibco, Grand Island, N.Y.) (containing 4 g/L glucose, 50 mg/L gentamicin and 10% group A^+ human serum), buffered with 25 mM HEPES and 25 mM NaHCO3 (Larrey, 1989). Cultures were maintained at 37° C. in a gas mixture of 5% oxygen, 5% CO2, and 90% nitrogen.
The in vitro anti-malarial activities of 2,3,4,5,6-pentahydroxyxanthone and other formula X1 compounds were measured by the [^3 H]-ethanolamine incorporation method as described in Elabbadi et al., 1992, with minor modifications. [^3 H]-ethanolamine was obtained from American Radiolabeled Chemicals, Inc., St. Louis, Mo. Experiments were conducted in 96 well plates in a total volume of 200 μl at a final red blood cell concentration of 3.3% (v/v). An initial parasitemia of 0.2 to 0.5% was attained by addition of normal uninfected red cells. Radiolabeled ethanolamine was added after 48 hours of incubation and the experiment was terminated after 72 hours by collecting the cells onto glass fiber filters with an automated multiwell harvester.
Stock solutions of the various formula X1 compounds were dissolved in DMSO at a concentration of 1 mM and diluted in complete medium (including 10% human serum) to provide 10× stock concentrations in the range of 1 to 10,000 nM. The concentration of the formula X1 compound giving 50% inhibition of label incorporation (IC50) relative to control (i.e., drug-free) conditions was calculated from the dose-response curve.

In test [2] the test system is Leishmania donovani. The test can be described thus: In vitro anti-leishmania activity, radiolabeled thymidine uptake assay. Particulars: for IC50: Leishmania donovani. Format: cell-based. As for the experimental part: Briefly, promastigotes were cultivated at 25° C. in Schneiders medium supplemented with 20% inactivated fetal calf serum and 100 μg/mL of gentamicin. Cells were maintained in log phase by seeding at 1×10^6 /mL with subculturing when cultured densities approached 4×10^7 /mL before reaching their maximal density. For the assay, early log phase promastigotes were counted on a hemacytometer and resuspended at a concentration of 1-2×10^6 cell/mL in assay media (Schneiders medium plus 10% fetal bovine serum). Ten-fold serial dilutions of each test compound were prepared as described above and added to 180 μL of the parasite suspension. After incubation for 24 hours at 25° C., methyl-^3 H-thymidine was added to each sample for a final concentration of 1-2 μCi per well. Each sample was then incubated for an additional 18 hours prior to harvesting. After this incubation time, each sample was aspirated onto a filter mat, washed thoroughly with deionized water, dried and then counted in a scintillation counter with scintillation cocktail.

Test [3] concerns Candida albicans (clinical isolate). The test can be described thus: Anti-Candida activity, minimum inhibitory concentration by visual inspection. Format: cell-based. Particulars: 15-18 hour incubation, 35° C., read-out: MIC against Candida albicans. The procedure:
The minimum inhibitory concentration (MIC) of formula X1 compounds against a clinical isolate of Candida albicans was determined using the following method. […] The determination of this concentration is made by visual inspection; there is no visible growth in a tube containing the MIC of the formula X1 compound whereas visible growth is present in tubes containing sub-MIC concentrations of the compound.
Candida albicans was grown to midlog-phase in Luria-Bertani broth (10 grams Bacto-tryptone, 5 grams Bacto-yeast extract and 10 grams NaCl per liter) and then inoculated into sterile test tubes containing LB broth to an initial density of 10^3 /ml. The formula X1 compound to be tested is dissolved in dimethylsulfoxide (DMSO) at a concentration of 10 mM and added to each tube at serial dilutions (1 μM, 10 μM, 25 μM, 50 μM, 100 μM and 0 μM). The tubes are incubated at 35° C. for 15-18 hours and then visually inspected.

Test [4] concerns Leishmania donovani. Conditions: reported by Grogl et al. (1992); cited from earlier work.
The mark [5] stands for this setting: Table 1, D6 strain, 72 h, read-out: IC50, μM vs. Plasmodium.
Setting [6] is: D6 strain, 72 h, read-out: anti-malarial activity IC50.
Where [7] appears, read: Table 2, read-out: IC50, mg/ml vs. Leishmania.
Where [8] appears, read: promastigotes, read-out: anti-leishmanial activity IC50.
Where [9] appears, read: D6, 72 h, read-out: IC50, μM vs. Plasmodium.

In brackets after ≈: the same amount, converted by molar mass. Read-outs that look alike come from different tables or passages of the source.

What is called MIC is the smallest concentration in the dilution series that meets the test's criterion for growth inhibition.

On to `O=c1c2cc(O)c(O)c(O)c2oc2cc(O)c(O)c(O)c12` [1,2,3,5,6,7-Hexahydroxyxanthone, 1,2,3,5,6,7-Hexahydroxy-xanthone], for which, in test [1] (setting [5]), the IC50 was in the range of 25 to 50 µM.
As to `O=c1c2cc(O)c(O)c(O)c2oc2cc(O)cc(O)c12` [1,3,5,6,7-pentahydroxyxanthone, 1,3,5,6,7-pentahydroxy-xanthone], in test [1] (setting [5]), the IC50 turned out to be 1 µM.
Regarding `O=c1c2ccccc2oc2cc(O)cc(O)c12` [1,3-dihydroxyxanthone, 1,3-dihydroxyxanthone], the IC50 in test [1] (setting [5]) was more than 100 µM.
Turning to `O=c1c2cc(O)c(O)c(O)c2oc2c(O)c(O)c(O)cc12` [2,3,4,5,6,7-hexahydroxyxanthone], the IC50 was 0.075 µM in test [1] (setting [6]), 0.075 µM in test [1] (setting [5]), 0.0015 mg/mL in the test on Leishmania donovani [2] (setting [7]) and approximately 5 µM in the test on Leishmania donovani [2] (setting [8]). Besides, the MIC in test [3] was approximately 37.5 µM (≈ 11 µg/mL).
Take `CC(=O)Oc1cc2c(=O)c3ccc(OC(C)=O)c(OC(C)=O)c3oc2c(OC(C)=O)c1OC(C)=O` [2,3,4,5,6-pentaacetoxyxanthone]: the figures for the IC50 in test [1] (setting [6]) and in test [1] (setting [5]) were approximately 0.075 µM and 0.075 µM, respectively. For the same compound, the “anti-malarial potency relative to 2,3,4,5,6-pentahydroxyxanthone” value in test [1] was “several times more potent”.
On to `O=c1c2ccc(O)c(O)c2oc2c(O)c(O)c(O)cc12` [2,3,4,5,6-pentahydroxyxanthone], for which the IC50 is 0.4 to 0.5 µM in test [1] (setting [6]), 0.4 to 0.5 µM in test [1] (setting [5]), 0.0015 mg/mL in the test with Leishmania donovani [2] (setting [7]) and approximately 5 µM in the test on Leishmania donovani [2] (setting [8]). The “anti-leishmanial activity IC50” value in the test on Leishmania donovani [2] (promastigotes, value in mg/ml) was approximately 1 µg/mL. Besides, in test [3], the minimum inhibitory concentration (MIC) was approximately 37.5 µM (≈ 10.4 µg/mL).
As to `COc1cc2c(=O)c3ccc(OC)c(OC)c3oc2c(OC)c1OC` [2,3,4,5,6-pentamethoxyxanthone], the IC50 in test [1] (setting [6]) and in test [1] (setting [5]) was more than 100 µM each time. The “anti-malarial potency relative to 2,3,4,5,6-pentahydroxyxanthone” value in test [1] was “essentially eliminated the anti-malarial activity”.
Regarding `O=c1c2ccc(O)c(O)c2oc2c(O)c(O)ccc12` [3,4,5,6-Tetrahdroxyxanthone, 3,4,5,6-Tetrahdroxy-xanthone], the IC50 in test [1] (setting [5]) worked out at 10 µM.
As to `CCN(CC)CCCC(C)Nc1ccnc2cc(Cl)ccc12` (stereo not drawn) [Chloroquine, reference compound], the IC50 in test [1] (D6, 72 h, read-out: anti-malarial activity IC50) was approximately 0.02 µM.
For `O=c1c2cc(O)c(O)cc2oc2cc(O)c([C@@H]3O[C@H](CO)[C@@H](O)[C@H](O)[C@H]3O)c(O)c12` [Mangiferin, reference compound], the values for the IC50 (in test [1] (setting [5]); in the test with Leishmania donovani [2] (setting [7])) were 50 µM and more than 0.05 mg/mL, respectively.
Turning to `COc1c(O)cc2oc3cc(O)c(CC=C(C)C)c(O)c3c(=O)c2c1CC=C(C)C` [Mangostin, reference compound], the IC50 in test [1] (setting [9]) was 5 µM; in the test with Leishmania donovani [2] (read-out: anti-leishmanial activity IC50), 0.00041 mg/mL; in the test with Leishmania donovani [2] (setting [7]), 0.00041 mg/mL; with Leishmania donovani [2] (setting [8]), 1 µM.
As for `O.O.O.O.O.O.O.O.O.O=C([O-])[C@@H]1[O][Sb](=[O])([O][Sb]2(=[O])[O][C@H]([C@H](O)CO)[C@H](O)[C@H](C(=O)[O-])[O]2)[O][C@H]([C@H](O)CO)[C@@H]1O.[Na+].[Na+].[Na+]` (stereo partly drawn) [Pentostam], the “IC50 values of commonly used anti-leishmanial drugs” value with Leishmania donovani [4] is 100 to 2000 µg/mL.
In the case of `O=c1c2ccccc2oc2ccccc12` [Xanthone], the IC50 in test [1] (setting [9]) came out at 10 µM.

These data come from patent US5977077A, “Xanthone analogs for the treatment of infectious diseases” (Interlab Corporation, priority 1996, dated 1999).
